From patent US20080306044A1, “SPIROBENZOAZEPANES AS VASOPRESSIN ANTAGONISTS” (priority 2007, published 2008) come the findings set out here.

Assay [1] deals with T1, human V1a receptor (Homo sapiens, UniProt P37288).
T1 construct: expressed in transfected cells
Briefly: In-vitro binding assay (3H-arginine-8-vasopressin), V1a. The conditions noted are these: membrane containing human V1a receptor; 3H-arginine-8-vasopressin 0.65-0.75 nM. Here is the method:
(§1) Assay buffer is 50 mM Tris-Cl, 5 mM MgCl2, 0.1% BSA (pH 7.5) containing 5 μg/mL of aprotinin, leupeptin, pepstatin, 50 μg/mL bacitracin, and 1 mM Pefabloc (4-(2-aminoethyl)-benzenesulfonyl fluoride, hydrochloride manufactured by Roche Diagnostics Corporation, Indianapolis, Ind. and distributed by Boehringer Mannheim). H3 vasopressin is ^3H-arginine-8-vasopressin (NEN Life Sciences, Boston, Mass.; 68.5 Ci/mmol, final concentration in assay is 0.65-0.75 nM). Into the wells of a 96-well round bottom polypropylene plates are added buffer, test compound, membrane (containing human V1a or V2 receptor), and H3 vasopressin. The reaction plates are allowed to sit at room temperature for one hour. The samples are filtered through Unifilter GF/C plates (PerkinElmer Life Sciences, Boston, Mass.) presoaked in 0.3 polyethyleneimine. The plates are washed 5 times with cold physiological saline containing 0.05% Tween 20. After drying, the bottom of the filter plates are sealed and 0.025 mL of Microscint-20 (Packard Instrument Co, Meriden, Conn.) is added to each filter. The top of the plate is sealed, and the plate is counted. Non-specific binding is determined by the addition of 1.25 μM arginine-8-vasopressin in those wells.
(§2) The % inhibition for the test results was calculated according to the formula: […]
Where an IC50 value was not obtained, the percent inhibition values are shown in parentheses (*) and were obtained at a test concentration of 0.2 μM.

The target of assay [2] is T2, human V2 receptor (Homo sapiens, UniProt P30518). Kind of assay: In-vitro binding assay (3H-arginine-8-vasopressin), V2. As to conditions: membrane containing human V2 receptor; 3H-arginine-8-vasopressin 0.65-0.75 nM. Here is the method: as §1, with “H3 vasopressin is ^3H-arginine-8-vasopressin (NEN Life Sciences, Boston, Mass.; 68.5 Ci/mmol, final concentration in assay is 0.65-0.75 nM).” left out, “counted.” for “counted. Non-specific binding is determined by the addition of 1.25 μM arginine-8-vasopressin in those wells.”
T2 sequence (P30518 whole entry): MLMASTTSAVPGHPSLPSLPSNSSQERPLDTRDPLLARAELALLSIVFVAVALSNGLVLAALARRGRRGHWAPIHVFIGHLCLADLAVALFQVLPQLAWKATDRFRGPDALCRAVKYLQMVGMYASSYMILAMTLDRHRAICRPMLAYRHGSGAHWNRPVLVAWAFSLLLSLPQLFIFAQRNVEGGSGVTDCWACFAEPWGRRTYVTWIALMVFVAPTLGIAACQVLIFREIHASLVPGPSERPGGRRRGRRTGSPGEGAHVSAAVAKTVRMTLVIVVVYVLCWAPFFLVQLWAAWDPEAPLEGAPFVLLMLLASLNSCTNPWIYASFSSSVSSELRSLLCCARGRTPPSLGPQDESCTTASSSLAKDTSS
as §2

Assay [3] addresses T1, human V1a receptor. Briefly: cell-based. As to conditions: V1 (functional) IC50, V1a-HEK cells; inhibition of vasopressin-stimulated intracellular calcium mobilization. (Calcium assays in cells follow changes in intracellular calcium, usually with a dye or a luminescent sensor.)
For assay [4], the target named is T2, human V2 receptor. Briefly: V2 vasopressin receptor functional activity (cAMP accumulation). In kind it is cell-based. On the set-up: expressed in transfected cells; host or cells: HEK-293. The conditions noted are these: V2-HEK cells; block of vasopressin-stimulated cAMP accumulation; read-out: V2 (functional) IC50. For orientation: Cyclic AMP is a second messenger, typically raised through Gs and lowered through Gi signalling.

Structures are written as SMILES.

T1 sequence (P37288 whole entry): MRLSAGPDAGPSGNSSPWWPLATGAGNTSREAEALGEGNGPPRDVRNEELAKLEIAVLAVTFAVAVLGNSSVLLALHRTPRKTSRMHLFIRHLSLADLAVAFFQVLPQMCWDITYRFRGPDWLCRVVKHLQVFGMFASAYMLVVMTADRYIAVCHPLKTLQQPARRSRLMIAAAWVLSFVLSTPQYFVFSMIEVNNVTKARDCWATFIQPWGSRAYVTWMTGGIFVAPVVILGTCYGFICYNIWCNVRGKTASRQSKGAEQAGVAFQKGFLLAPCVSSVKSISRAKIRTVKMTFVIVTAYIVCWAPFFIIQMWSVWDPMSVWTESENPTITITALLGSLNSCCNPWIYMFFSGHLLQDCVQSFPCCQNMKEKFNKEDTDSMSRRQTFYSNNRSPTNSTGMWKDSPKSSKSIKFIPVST

With `O=C(Nc1ccc(C(=O)N2CCC3(CCCC3=NO)Cc3ccccc32)cc1)c1ccccc1-c1ccccc1` (centres unmarked) [Cpd 37, N-[4-(biphen-2-ylcarbonyl)amino-phenylcarbonyl]-2-hydroxyimino-spiro[cyclopentane-1,4′-benzo[b]azepane]], the IC50 (usually the concentration that gives 50% inhibition) came out at 23 nM at human V1a receptor [1], 27 nM on human V2 receptor [2], 30 nM at human V1a receptor [3] and 90 nM on human V2 receptor [4].

In the case of `O=C(Nc1ccc(C(=O)N2CCC3(CCCC3=NO)Cc3ccccc32)cc1)c1cc(F)ccc1Cl` (centres unmarked) [Cpd 44, N-[4-(2-chloro-5-fluoro-phenylcarbonyl)amino-phenylcarbonyl]-2-hydroxyimino-spiro[cyclopentane-1,4′-benzo[b]azepane]], the IC50 at human V1a receptor [1] was determined as 7 nM; at human V2 receptor [2], 28 nM; on human V1a receptor [3], 20 nM; on human V2 receptor [4], 66 nM.
